{"source": "patent US9157917B2", "about": "“Applications of Indoloindole and Indoloquinoline dyes” (Biosynth AG, priority 2010, dated 2015)", "key": {"[1]": {"test_system": "E. coli", "experiment": "Fluorescence of Aldol 495 nonanoate in nutrient broth cultures", "assay_type": "cell-based"}, "[2]": {"experiment": "Fluorescence of Aldol 495 nonanoate in nutrient broth, sterile control", "assay_type": "physicochemical"}, "[3]": {"test_system": "various bacterial strains", "experiment": "Nonanoate indicators in buffered peptone water in polystyrene plates", "assay_type": "cell-based", "conditions": "0.4 mM, polystyrene plate, 37° C., 48 hours, excitation 360 nm, emission 560 nm", "description": "Buffered peptone water containing either 0.4 mM Aldol™ 495 nonanoate or 0.2 mM 4-methylumbelliferyl nonanoate was dispensed in a microtiter plate and inoculated with about 700 cfu/ml of various bacterial strains. […] An excitation wavelength of 360 nm was used for both dyes, the emission wavelength was 560 nm for the Aldol™ 495 dye and 460 nm for the 4-methylumbelliferone."}, "[4]": {"test_system": "Salmonella", "experiment": "Salmonella grown in medium with precursor emulsion in glass tubes", "assay_type": "cell-based", "conditions": "medium without detergents"}, "[5]": {"test_system": "S. enteritidis", "experiment": "Fluorescence of Aldol 495 nonanoate in nutrient broth cultures", "conditions": "for Fluorescence values: S. enteritidis"}}}
{"smiles": "CCCCCCCCC(=O)Oc1cn(-c2ccccc2C(=O)c2cccn2C)c2cc(Cl)ccc12", "note": "[Aldol™ 495 nonanoate]", "values": [{"measurement": "Fluorescence values", "setting": "[1]; stock solution 50 mM, 0 h", "value": 424, "unit": "RFU"}, {"measurement": "Fluorescence values", "setting": "[1]; stock solution 50 mM, 12 h", "value": 463, "unit": "RFU"}, {"measurement": "Fluorescence values", "setting": "[1]; stock solution 50 mM, 18 h", "value": 551, "unit": "RFU"}, {"measurement": "Fluorescence values", "setting": "[1]; stock solution 50 mM, 48 h", "value": 1710, "unit": "RFU"}, {"measurement": "Fluorescence values", "setting": "[1]; stock solution 50 mM, 120 h", "value": 3851, "unit": "RFU"}, {"measurement": "Fluorescence values", "setting": "[1]; stock solution 200 mM, 0 h", "value": 444, "unit": "RFU"}, {"measurement": "Fluorescence values", "setting": "[1]; stock solution 200 mM, 12 h", "value": 404, "unit": "RFU"}, {"measurement": "Fluorescence values", "setting": "[1]; stock solution 200 mM, 18 h", "value": 468, "unit": "RFU"}, {"measurement": "Fluorescence values", "setting": "[1]; stock solution 200 mM, 48 h", "value": 774, "unit": "RFU"}, {"measurement": "Fluorescence values", "setting": "[1]; stock solution 200 mM, 120 h", "value": 1924, "unit": "RFU"}, {"measurement": "Fluorescence values", "setting": "[2]; stock solution 50 mM, 0 h", "value": 392, "unit": "RFU"}, {"measurement": "Fluorescence values", "setting": "[2]; stock solution 50 mM, 12 h", "value": 445, "unit": "RFU"}, {"measurement": "Fluorescence values", "setting": "[2]; stock solution 50 mM, 18 h", "value": 434, "unit": "RFU"}, {"measurement": "Fluorescence values", "setting": "[2]; stock solution 50 mM, 48 h", "value": 511, "unit": "RFU"}, {"measurement": "Fluorescence values", "setting": "[2]; stock solution 50 mM, 120 h", "value": 523, "unit": "RFU"}, {"measurement": "Fluorescence values", "setting": "[2]; stock solution 200 mM, 0 h", "value": 433, "unit": "RFU"}, {"measurement": "Fluorescence values", "setting": "[2]; stock solution 200 mM, 12 h", "value": 399, "unit": "RFU"}, {"measurement": "Fluorescence values", "setting": "[2]; stock solution 200 mM, 18 h", "value": 411, "unit": "RFU"}, {"measurement": "Fluorescence values", "setting": "[2]; stock solution 200 mM, 48 h", "value": 422, "unit": "RFU"}, {"measurement": "Fluorescence values", "setting": "[2]; stock solution 200 mM, 120 h", "value": 455, "unit": "RFU"}, {"measurement": "Specificity of fluorescence", "setting": "[3]", "value": "specific for Salmonella strains"}, {"measurement": "Fluorescence of Salmonella culture", "setting": "[4]", "value": "yellow green fluorescence"}, {"measurement": "Fluorescence signal, indicator added from 20 mM stock solution versus 200 mM stock solution", "setting": "[5]", "value": "stronger fluorescence signal"}, {"measurement": "Fluorescence values", "setting": "[5]; stock solution 50 mM, 0 h", "value": 406, "unit": "RFU"}, {"measurement": "Fluorescence values", "setting": "[5]; stock solution 50 mM, 12 h", "value": 2922, "unit": "RFU"}, {"measurement": "Fluorescence values", "setting": "[5]; stock solution 50 mM, 18 h", "value": 10047, "unit": "RFU"}, {"measurement": "Fluorescence values", "setting": "[5]; stock solution 50 mM, 48 h", "value": 45027, "unit": "RFU"}, {"measurement": "Fluorescence values", "setting": "[5]; stock solution 50 mM, 120 h", "value": 13424, "unit": "RFU"}, {"measurement": "Fluorescence values", "setting": "[5]; stock solution 200 mM, 0 h", "value": 412, "unit": "RFU"}, {"measurement": "Fluorescence values", "setting": "[5]; stock solution 200 mM, 12 h", "value": 1812, "unit": "RFU"}, {"measurement": "Fluorescence values", "setting": "[5]; stock solution 200 mM, 18 h", "value": 3449, "unit": "RFU"}, {"measurement": "Fluorescence values", "setting": "[5]; stock solution 200 mM, 48 h", "value": 8403, "unit": "RFU"}, {"measurement": "Fluorescence values", "setting": "[5]; stock solution 200 mM, 120 h", "value": 5169, "unit": "RFU"}]}
